≈ marks a conversion by molar mass, not a printed value. A value given as a limit tells only on which side of the number the result lay.

Experiment [1] concerns Pseudomonas aeruginosa. The experiment in a line: Antibacterial activity against Pseudomonas aeruginosa ATCC 27853 after overnight incubation. Type of experiment: functional.
The test system of experiment [2] is Enterococcus faecalis. The experiment in a line: Antibacterial activity against Streptococcus faecalis group D ATCC 29212 after overnight incubation. Type of experiment: functional, organism-based.
Experiment [3] relates to Escherichia coli. The experiment in a line: Antibacterial activity against Escherichia coli ATCC 25922 after overnight incubation. It counts as functional.
The test system of experiment [4] is Staphylococcus aureus. The experiment in a line: Antibacterial activity against Staphylococcus aureus ATCC 25923 after overnight incubation. It counts as functional, organism-based.

As to `CC(C)CCC/C=C\CC/C=C\CCCC(=O)O`, the MIC is greater than 100 µg/mL in experiment [1], 160 µM (≈ 40.4 µg/mL) in experiment [2], greater than 100 µg/mL in experiment [3] and 240 µM (≈ 60.6 µg/mL) in experiment [4]. The half-inhibitory concentration (IC50) is less than 10 µg/mL in experiment [2] and 36 µg/mL (≈ 143 µM) in experiment [4].

The record behind these values is ChEMBL document CHEMBL1146427, “Identification of the novel antimicrobial fatty acid (5Z,9Z)-14-methyl-5,9-pentadecadienoic acid in Eunicea succinea” (J Nat Prod, 1997).
